25 compounds from patent US7226923B2, “Phthalazinone derivatives” (Hoffman-La Roche Inc., priority 2004, dated 2007) can be followed below.

Assay [1] addresses T1, Aurora A (Homo sapiens, UniProt O14965).
T1 construct: C-terminally Histidine4 (His4)-tagged Aurora A full-length protein
T1 sequence (O14965 1-403): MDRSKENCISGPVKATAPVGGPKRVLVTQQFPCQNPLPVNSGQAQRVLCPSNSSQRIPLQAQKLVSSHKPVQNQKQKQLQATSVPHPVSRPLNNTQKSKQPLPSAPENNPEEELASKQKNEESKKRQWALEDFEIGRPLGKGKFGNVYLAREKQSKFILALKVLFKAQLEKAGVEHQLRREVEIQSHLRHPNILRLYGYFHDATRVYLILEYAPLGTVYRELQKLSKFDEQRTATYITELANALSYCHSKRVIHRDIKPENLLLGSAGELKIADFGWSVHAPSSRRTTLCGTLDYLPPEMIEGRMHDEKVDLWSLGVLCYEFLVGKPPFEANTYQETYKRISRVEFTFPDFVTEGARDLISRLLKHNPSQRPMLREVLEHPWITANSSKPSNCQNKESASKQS
The experiment in a line: IC50 determination for inhibitors of Aurora A (96 MTP-ELISA). The format is biochemical. The note with it: His4-tagged full-length Aurora A 250 ng/ml, PKB-GSK2 200 nM, ATP 4 μM, 90 min at room temperature, read-out: IC50 Aurora A kinase inhibition.

In assay [2] the test system is HCT 116 cells. The experiment in a line: CellTiter-Glo assay in HCT 116 cells. Format: cell-based, human. The settings on record: Homo sapiens, HCT-116, 120 h, 5 days incubation, 30 μM to 0.0015 μM. From the text: CellTiter-Glo™ Assay in HCT 116 Cells
The CellTiter-Glo™ Luminescent Cell Viability Assay (Promega) is a homogeneous method of determining the number of viable cells in culture based on quantitation of the ATP present, which signals the presence of metabolically active cells.
HCT 116 cells (human colon carcinoma, ATCC-No. CCl-247) were cultivated in RPMI 1640 medium with GlutaMAX™ I (Invitrogen, Cat-No. 61870-010), 2.5% Fetal Calf Serum (FCS, Sigma Cat-No. F4135 (FBS)); 100 Units/ml penicillin/100 μg/ml streptomycin (=Pen/Strep from Invitrogen Cat. No. 15140). For the assay the cells were seeded in 384 well plates, 1000 cells per well, in the same medium. The next day the test compounds were added in various concentrations ranging from 30 μM to 0.0015 μM (10 concentrations, 1:3 diluted). After 5 days the CellTiter-Glo™ assay was done according to the instructions of the manufacturer (CellTiter-Glo™ Luminescent Cell Viability Assay, from Promega). In brief: the cell-plate was equilibrated to room temperature for approximately 30 minutes and than the CellTiter-Glo™ reagent was added. The contents were carefully mixed for 15 minutes to induce cell lysis. After 45 minutes the luminescent signal was measured in Victor 2, (scanning multiwell spectrophotometer, Wallac).
1st. Day: • Medium: RPMI 1640 with GlutaMAX™ I (Invitrogen, Cat-Nr. 61870), 5% FCS (Sigma Cat.-No. F4135), Pen/Strep (Invitrogen, Cat No. 15140). • HCT116 (ATCC-No. CCl-247): 1000 cells in 60 μl per well of 384 well plate (Greiner 781098, μClear-plate white) • After seeding incubate plates 24 h at 37° C., 5% CO2
2nd. Day: Induction (Treatment with Compounds, 10 Concentrations):
In order to achieve a final concentration of 30 μM as highest concentration 3.5 μl of 10 mM compound stock solution were added directly to 163 μl media. Then step e) of the dilution procedure described below, was followed.

`Cc1cc(Nc2nn(C(C)C)c(=O)c3cc(N(C)C(=O)NC(C)C)ccc23)n[nH]1` [Example I-6, 3-Isopropyl-1-[3-isopropyl-1-(5-methyl-1H-pyrazol-3-ylamino)-4-oxo-3,4-dihydro-phthalazin-6-yl]-1-methyl-urea]: the IC50 in assay [1] lay in the range of 1 to 100 nM; in assay [2], 100 to 10000 nM.

In the case of `Cc1cc(Nc2nn(-c3ccc(C(C)(C)C)cc3)c(=O)c3ccccc23)n[nH]1` [Example A-8, 2-(4-tert-Butyl-phenyl)-4-(5-methyl-1H-pyrazol-3-ylamino)-2H-phthalazin-1-one], the IC50 in assay [1] was in the range of 100 to 1000 nM; in assay [2] it was 100 to 10000 nM.

Consider `Cc1cc(Nc2nn(-c3ccc(N4CCOCC4)cc3)c(=O)c3ccccc23)n[nH]1` [Example U-2, 4-(5-Methyl-1H-pyrazol-3-ylamino)-2-(4-morpholin-4-yl-phenyl)-2H-phthalazin-1-one], for which the IC50 lay within 1 to 100 nM in assay [1] and 100 to 10000 nM in assay [2].

In the case of `COc1cccc(Cn2nc(Nc3cc(C)[nH]n3)c3ccccc3c2=O)c1` [Example A-12, 2-(3-Methoxy-benzyl)-4-(5-methyl-1H-pyrazol-3-ylamino)-2H-phthalazin-1-one], the IC50 lay in the range of 1 to 100 nM in assay [1] and 100 to 10000 nM in assay [2].

Regarding `Cc1cc(Nc2nn(-c3ccc(OC(F)(F)F)cc3)c(=O)c3ccccc23)n[nH]1` [Example W-2, 4-(5-Methyl-1H-pyrazol-3-ylamino)-2-(4-trifluoromethoxy-phenyl)-2H-phthalazin-1-one], the results for the 50% inhibitory concentration (IC50) in assay [1] and in assay [2] were 1 to 100 nM and 100 to 10000 nM, respectively.

With `Cc1cc(Nc2nn(-c3ccc(NC(=O)c4ccccc4)cc3)c(=O)c3ccccc23)n[nH]1` [Example T-4, N-{4-[4-(5-Methyl-1H-pyrazol-3-ylamino)-1-oxo-1H-phthalazin-2-yl]-phenyl}-benzamide], the figures for the IC50 in assay [1] and in assay [2] were 100 to 1000 nM and 100 to 10000 nM, respectively.

For the compound `CNC(=O)Nc1ccc2c(Nc3cc(C)[nH]n3)nn(C(C)C)c(=O)c2c1` [Example I-13, 1-[3-Isopropyl-1-(5-methyl-1H-pyrazol-3-ylamino)-4-oxo-3,4-dihydro-phthalazin-6-yl]-3-methyl-urea], the half-maximal inhibitory concentration (IC50) in assay [1] lay within 1 to 100 nM; in assay [2], 100 to 10000 nM.

Regarding `Cc1cc(Nc2nn(CC(F)(F)F)c(=O)c3ccccc23)n[nH]1` [Example A-5, 4-(5-Methyl-1H-pyrazol-3-ylamino)-2-(2,2,2-trifluoro-ethyl)-2H-phthalazin-1-one], the IC50 in assay [1] is 1 to 100 nM; in assay [2] it was 100 to 10000 nM.

In the case of `Cc1cc(Nc2nn(-c3ccc(C(C)C)cc3)c(=O)c3ccccc23)[nH]n1` [Example P-1, 2-(4-Isopropyl-phenyl)-4-(5-methyl-2H-pyrazol-3-ylamino)-2H-phthalazin-1-one], the IC50 in assay [1] lay within 1 to 100 nM; in assay [2] it was 100 to 10000 nM.

Regarding `Cc1cc(Nc2nn(C(C)C)c(=O)c3cc(N(C)CCN4CCOCC4)ccc23)n[nH]1` [Example I-1, 2-Isopropyl-7-[methyl-(2-morpholin-4-yl-ethyl)-amino]-4-(5-methyl-1H-pyrazol-3-ylamino)-2H-phthalazin-1-one], the IC50 in assay [1] lay in the range of 1 to 100 nM; in assay [2] it was 100 to 10000 nM.

Take `Cc1cc(Nc2nn(-c3ccc(N4CCCCC4)cc3)c(=O)c3ccccc23)[nH]n1` [Example V-1, 4-(5-Methyl-2H-pyrazol-3-ylamino)-2-(4-piperidin-1-yl-phenyl)-2H-phthalazin-1-one]: the figures for the IC50 in assay [1] and in assay [2] were 1 to 100 nM and 100 to 10000 nM, respectively.

In the case of `CCC(C)c1ccc(-n2nc(Nc3cc(C)n[nH]3)c3ccccc3c2=O)cc1` (centres unmarked) [Example P-2, 2-(4-sec-Butyl-phenyl)-4-(5-methyl-2H-pyrazol-3-ylamino)-2H-phthalazin-1-one], the IC50 in assay [1] fell in the range of 1 to 100 nM; in assay [2] it was 10000 to 100000 nM.

For the compound `Cc1cc(Nc2nn(-c3ccc(C(C)(C)C)cc3)c(=O)c3cc(NC=O)ccc23)[nH]n1` [Example ZB-1, N-[3-(4-tert-Butyl-phenyl)-1-(5-methyl-2H-pyrazol-3-ylamino)-4-oxo-3,4-dihydro-phthalazin-6-yl]-formamide], the IC50 in assay [1] lay within 1 to 100 nM; in assay [2], 100 to 10000 nM.

With `Cc1cc(Nc2nn(C(C)C)c(=O)c3cc(N(C)C(=O)OC(C)(C)C)ccc23)[nH]n1` [Example I-14, [3-Isopropyl-1-(5-methyl-2H-pyrazol-3-ylamino)-4-oxo-3,4-dihydro-phthalazin-6-yl]-methyl-carbamic acid tert-butyl ester], the IC50 in assay [1] is 1 to 100 nM; in assay [2], 100 to 10000 nM.

For `Cc1cc(Nc2nn(-c3cccc(C(F)(F)F)c3)c(=O)c3ccccc23)n[nH]1` [Example R-1, 4-(5-Methyl-1H-pyrazol-3-ylamino)-2-(3-trifluoromethyl-phenyl)-2H-phthalazin-1-one], the IC50 lay in the range of 1 to 100 nM in assay [1] and 100 to 10000 nM in assay [2].

Consider `Cc1cc(Nc2nn(Cc3csc(C)n3)c(=O)c3ccccc23)n[nH]1` [Example A-16, 4-(5-Methyl-1H-pyrazol-3-ylamino)-2-(2-methyl-thiazol-4-ylmethyl)-2H-phthalazin-1-one], for which the IC50 in assay [1] is 100 to 1000 nM; in assay [2], 100 to 10000 nM.

As for `COC(=O)c1ccc2c(Nc3cc(C)[nH]n3)nn(C(C)C)c(=O)c2c1` [Example M-8, 3-Isopropyl-1-(5-methyl-1H-pyrazol-3-ylamino)-4-oxo-3,4-dihydro-phthalazine-6-carboxylic acid methyl ester], the IC50 was in the range of 1 to 100 nM in assay [1] and 100 to 10000 nM in assay [2].

`Cc1cc(Nc2nn(C(C)C)c(=O)c3cc(CO)ccc23)n[nH]1` [Example M-9, 7-Hydroxymethyl-2-isopropyl-4-(5-methyl-1H-pyrazol-3-ylamino)-2H-phthalazin-1-one]: the IC50 is 1 to 100 nM in assay [1] and 100 to 10000 nM in assay [2].

`Cc1cc(Nc2nn(-c3ccc(NC(=O)C(C)(C)C)cc3)c(=O)c3ccccc23)n[nH]1` [Example T-3, 2,2-Dimethyl-N-{4-[4-(5-methyl-1H-pyrazol-3-ylamino)-1-oxo-1H-phthalazin-2-yl]-phenyl}-propionamide]: the IC50 in assay [1] was in the range of 100 to 1000 nM; in assay [2], 100 to 10000 nM.

For the compound `Cc1cc(Nc2nn(CC(O)c3ccccc3)c(=O)c3ccccc23)n[nH]1` (centres unmarked) [Example E-13, 2-(2-Hydroxy-2-phenyl-ethyl)-4-(5-methyl-1H-pyrazol-3-ylamino)-2H-phthalazin-1-one], the values for the IC50 in assay [1] and in assay [2] were 100 to 1000 nM and 10000 to 100000 nM, respectively.

As to `CCN(CC)C(=O)c1ccc2c(Nc3cc(C)[nH]n3)nn(C(C)C)c(=O)c2c1` [Example M-3, 3-Isopropyl-1-(5-methyl-1H-pyrazol-3-ylamino)-4-oxo-3,4-dihydro-phthalazine-6-carboxylic acid diethylamide], the IC50 in assay [1] was 1 to 100 nM; in assay [2] it was 100 to 10000 nM.

Turning to `Cc1cc(Nc2nn(CC(=O)c3ccc4c(c3)OCO4)c(=O)c3ccccc23)n[nH]1` [Example E-7, 2-(2-Benzo[1,3]dioxol-5-yl-2-oxo-ethyl)-4-(5-methyl-1H-pyrazol-3-ylamino)-2H-phthalazin-1-one], the half-maximal inhibitory concentration (IC50) in assay [1] lay in the range of 100 to 1000 nM; in assay [2] it was 100 to 10000 nM.

For the compound `Cc1cc(Nc2nn(C(C)C)c(=O)c3ccc(CO)cc23)n[nH]1` [Example M-10, 6-Hydroxymethyl-2-isopropyl-4-(5-methyl-1H-pyrazol-3-ylamino)-2H-phthalazin-1-one], the IC50 in assay [1] lay within 100 to 1000 nM; in assay [2], 100 to 10000 nM.

As to `Cc1cc(Nc2nn(C)c(=O)c3ccccc23)n[nH]1` [Example A-3, 2-Methyl-4-(5-methyl-1H-pyrazol-3-ylamino)-2H-phthalazin-1-one], the results for the IC50 in assay [1] and in assay [2] were 100 to 1000 nM and 100 to 10000 nM, respectively.

With `Cc1cc(Nc2nn(-c3ccc([N+](=O)[O-])cc3)c(=O)c3ccccc23)n[nH]1` [Example W-3, 4-(5-Methyl-1H-pyrazol-3-ylamino)-2-(4-nitro-phenyl)-2H-phthalazin-1-one], the IC50 in assay [1] fell in the range of 1 to 100 nM; in assay [2], 10000 to 100000 nM.
